Results: PMC11732138, “Gold complex compounds that inhibit drug-resistant Staphylococcus aureus by targeting thioredoxin reductase” (Frontiers in Antibiotics, 2023)
≈ marks a conversion by molar mass, not a printed value. Entries after “also recorded” stand apart in the source; their conditions may differ. Read-outs that look alike come from different tables or passages of the source.

Legend:
[1] = Immortalized cell line toxicity (WST-1), the three cell lines together; assay type: cell-based; conditions: human, hkc, hepg2, a549 cells, HKC, HepG2, A549; read-out: toxicity to cell lines as multiple of the MIC
Experimental: (§1) A hepatic cell line (HepG2), lung carcinoma cell line (A549), and kidney cell line (HKC) were used to test the cytotoxicity of investigational compounds. Cells were grown in DMEM (ThermoFisher Scientific, Waltham, MA, USA) supplemented with 10% fetal bovine serum (FBS) (ThermoFisher Scientific, Waltham, MA, USA) and 1% penicillin/streptomycin (ThermoFisher Scientific, Waltham, MA, USA) and maintained at 37°C in 5% CO2. 2.5x10^4 cells in 100 μL of DMEM with 10% FBS were added to wells of 96-well plates 24 h prior to the experiments. Compounds were serially diluted in […], and 100 μL antibiotic-free DMEM was added to the monolayer and incubated at 37°C in 5% CO2 for 24 h. At 2 h before the end of the incubation period, 10 μL of 2-(4-iodophenyl)-3-(4-nitrophenyl)-5-(2, 4-disulfophenyl)-2H-tetrazolium (WST-1) solution (Roche, Mannheim, Germany) was added to each well. WST-1 reduction was monitored at 450 nm using a Vmax microplate reader. Assays were performed in triplicate, and the percentage survival was calculated by comparing the compound-treated wells to the DMSO vehicle control wells.

HepG2 cells = assay: Immortalized cell line toxicity (WST-1), HepG2; assay type: cell-based, human; conditions: HepG2 liver cell line, 24 h
Experimental: as §1

[2] = Compound solubility in DMSO; assay type: physicochemical; conditions: organic solvent or mixture, turbidity at 540 nm, read-out: concentration at which reduced solubility began in DMSO
Experimental: To test compound solubility, stock solutions were made in triplicate at 50 mg/mL in DMSO. Two-fold serial dilutions of the test compounds were prepared at 50 μL volume in a 96-well assay plate and were kept in the incubator for 1 h. After incubation, the absorbance was measured at 540 nm using a Vmax microplate reader (Molecular Devices, Sunnyvale, CA, USA.) to detect turbidity.

[3] = system: renal proximal tubule epithelial cells; assay: Renal proximal tubule epithelial cell toxicity; assay type: cell-based, human
[4] = Compound solubility in PBS; assay type: physicochemical; conditions: aqueous buffer
Experimental: Compound solubility in PBS. Compound solubility was measured in PBS. Briefly, serial dilutions of test compounds were prepared in DMSO at 100x the final concentration. Test compound solutions were diluted 100-fold into PBS in a 96-well plate and mixed. After 2 h, the presence of precipitate was detected by measuring absorbance at 540 nm.

S. aureus TrxR = S. aureus TrxR (Staphylococcus aureus, UniProt P66011); assay: TrxR (TrxB) enzymatic assay, DTNB to TNB conversion
Sequence of S. aureus TrxR (P66011 whole entry): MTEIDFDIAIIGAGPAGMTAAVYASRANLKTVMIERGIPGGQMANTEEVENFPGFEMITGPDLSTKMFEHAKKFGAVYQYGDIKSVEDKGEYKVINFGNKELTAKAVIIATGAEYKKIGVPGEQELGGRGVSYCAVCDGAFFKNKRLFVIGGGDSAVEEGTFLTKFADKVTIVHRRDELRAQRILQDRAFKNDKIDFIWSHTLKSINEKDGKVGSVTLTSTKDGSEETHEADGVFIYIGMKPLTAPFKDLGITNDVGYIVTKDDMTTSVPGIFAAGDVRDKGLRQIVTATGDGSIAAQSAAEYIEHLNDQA
Experimental: TrxR specific inhibitory activity was evaluated using 40 μL of S. aureus TrxR enzyme (0.5 μg/μL) per 200 mL of the reaction mixture for 15 minutes, comparing auranofin to other sulfur-containing compounds (all tested at 10 μg/mL), including known anti-S. aureus compounds.
For the screening assay, diluted TrxR assay buffer (Cayman Chemical, Ann Arbor, MI) (100 μL) was mixed with the investigational compounds (20 μL) in a 96 well-plate format and combined with Sa-TrxB (40 μL; 0.5 μg/mL), DTNB (20 μL) and NADPH (20 μL). The reaction entailed combining NADPH and Sa-TrxB with DTNB, which was converted to TNB, producing a yellow color.

HKC cells = assay: Immortalized cell line toxicity (WST-1), HKC; assay type: cell-based, human; conditions: HKC kidney cell line, 24 h
Experimental: as §1

[5] = system: human primary hepatocytes; assay: Human primary hepatocytes toxicity; assay type: cell-based; conditions: 24 h, WST1
Experimental: Human primary hepatocytes toxicity. Cryopreserved human primary hepatocytes were purchased from the Cell Resource Core at Massachusetts General Hospital (Boston, MA, USA). Collagen sandwiched configuration was used to culture the thawed cells in 24-well plates. The 24-well plates were coated with rat tail collagen type I (Cell Recourse Core, MGH) and incubated for an hour before 4 x 10^5 live cells were plated and incubated at 37°C with 5% CO2 for 1 h to allow cells to attach to the collagen gel. After incubation, the medium was removed along with dead cells, and the remaining cells received 0.5 mL of hepatocyte culture medium containing Dulbecco’s modified Eagle’s medium (DMEM) media supplemented with 10% FBS, 0.5 U/mL insulin, 14 ng/mL glucagon, 20 ng/mL EGF, 7.5 µg/mL hydrocortisone and 200 U/mL penicillin-streptomycin. The cell cultures were incubated in a humidified, 5% CO2 incubator at 37°C. After 24 h, a top layer of collagen gel was poured over the hepatocytes attached to collagen on the bottom of the plate, making a sandwich model. After 1 h, investigational compounds at the designated concentrations were added and incubated for 24 h. Post incubation, hepatocyte WST1 (Roche, Basel, Switzerland) was added and incubated for 4 h. Cell staining was measured by recording the absorbance at 420 nm, measured using a Vmax microplate reader (Molecular Devices, San Jose, CA, USA.), and data were plotted using GraphPad Prism. Cells were tested in triplicate.

A549 cells = assay: Immortalized cell line toxicity (WST-1), A549; assay type: cell-based, human; conditions: A549 lung carcinoma cell line, 24 h
Experimental: as §1

S. aureus MW2 [6] = assay: Time to kill assay; assay type: cell-based, Staphylococcus aureus; conditions: 4 × MIC, 4 h; bactericidal = 3-log10-CFU/mL reduction
Experimental: S. aureus MW2, a methicillin-resistant S. aureus (MRSA) isolate, was used to determine the bacteriostatic/bactericidal properties of test compounds, as previously described ([Rajamuthiah et al., 2015]). Assays were carried out as 2 biological replicates with n=3 for each in 24 well plates (BD Biosciences, Franklin Lakes, NJ, USA). Briefly, S. aureus MW2 cells were streaked on TSB agar from a frozen glycerol stock, and after overnight incubation, a single colony was inoculated on 2 mL of TSB and incubated at 37°C with agitation. The overnight culture of S. aureus MW2 was centrifuged at 4000 g for 5 min and then washed twice with PBS and collected through centrifuged at 4000 g for 5 min. The PBS was discarded and cells were suspended in TSB and aliquoted into a 24-well plate at a density of 10^8 cells/mL as a 1 mL volume. Test compounds were added such that the final concentration was 4 × MIC, and the cultures were incubated at 37°C with agitation. At designated time intervals, 5 μL aliquots from each test condition were serially diluted in TSB and plated onto TSA (BD Biosciences, Franklin Lakes, NJ, USA). CFUs were enumerated after overnight incubation at 35°C, and data were plotted using GraphPad Prism 9.0 (San Diego, CA, USA) to report the means and standard deviation of growth as measured by CFU/mL.

hERG channel = hERG channel (Homo sapiens, UniProt Q12809); assay: hERG measurement (QPatch HTX patch clamp)
Sequence of hERG channel (Q12809 whole entry): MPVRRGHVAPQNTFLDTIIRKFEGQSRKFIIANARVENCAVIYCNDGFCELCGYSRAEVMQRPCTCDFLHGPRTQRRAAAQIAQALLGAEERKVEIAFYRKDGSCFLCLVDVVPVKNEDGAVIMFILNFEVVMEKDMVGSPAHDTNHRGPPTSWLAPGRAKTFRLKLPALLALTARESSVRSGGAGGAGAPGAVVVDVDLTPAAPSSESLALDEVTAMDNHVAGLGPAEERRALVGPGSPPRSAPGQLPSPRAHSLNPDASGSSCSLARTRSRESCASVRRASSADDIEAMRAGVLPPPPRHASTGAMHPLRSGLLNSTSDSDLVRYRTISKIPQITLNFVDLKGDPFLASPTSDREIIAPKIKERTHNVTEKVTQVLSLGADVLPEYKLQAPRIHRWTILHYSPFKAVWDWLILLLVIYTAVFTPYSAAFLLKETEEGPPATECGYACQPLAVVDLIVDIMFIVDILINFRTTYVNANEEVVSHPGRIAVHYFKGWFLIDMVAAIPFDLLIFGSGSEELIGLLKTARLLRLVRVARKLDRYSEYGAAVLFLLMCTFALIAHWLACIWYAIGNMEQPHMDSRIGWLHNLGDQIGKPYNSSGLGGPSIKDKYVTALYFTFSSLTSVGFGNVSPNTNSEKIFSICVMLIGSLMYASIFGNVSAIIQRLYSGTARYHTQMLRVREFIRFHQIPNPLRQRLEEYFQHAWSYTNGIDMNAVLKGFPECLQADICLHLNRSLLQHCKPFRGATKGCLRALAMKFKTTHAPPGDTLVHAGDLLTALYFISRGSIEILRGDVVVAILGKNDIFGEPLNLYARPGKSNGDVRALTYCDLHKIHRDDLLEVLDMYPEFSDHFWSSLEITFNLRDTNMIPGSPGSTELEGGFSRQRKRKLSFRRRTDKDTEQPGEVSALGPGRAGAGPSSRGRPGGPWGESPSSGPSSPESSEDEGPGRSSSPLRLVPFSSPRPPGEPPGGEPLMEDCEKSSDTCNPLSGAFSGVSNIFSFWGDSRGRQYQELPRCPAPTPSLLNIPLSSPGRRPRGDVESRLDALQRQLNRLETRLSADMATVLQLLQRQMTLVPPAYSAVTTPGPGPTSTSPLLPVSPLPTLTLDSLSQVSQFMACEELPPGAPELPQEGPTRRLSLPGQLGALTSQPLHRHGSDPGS
Text: QPatch HTX system (Sophion Biosciences A/S, Ballerup, Denmark) was used to examine hERG signaling (Cyprotex, Watertown, MA, USA). The system was primed with appropriate extracellular (NaCl, KCl, CaCl2, MgCl2, D-glucose, HEPES, pH 7.4) and intracellular (KCl, MgCl2, EGTA, MgATP, HEPES, pH 7.2) solutions before conducting the study in a 48 well plate (QPlate, Sophion Biosciences A/S, Ballerup, Denmark). All cell suspensions, buffers, and test compound solutions were kept at room temperature during the experiment. HEK293 cells stably transfected with hERG cDNA were washed and positioned into each well (recording chamber) of the QPlate. The QPatch system follows the general principles of conventional whole-cell patch-clamping: a high resistance seal is formed between the patch electrode, and an individual cell, the membrane across the electrode tip is then ruptured, and the whole-cell patch-clamp configuration is established. The standard voltage profile was as follows: step from -80 mV to –50 mV for 200 ms, +20 mV for 4.8 s, step to -50 mV for 5 s, then stepped to the holding potential of -80 mV. The step from -80 mV to the test command (+20 mV) results in an outward current (i.e., current flows out of the cell), and the step from the test command (+20 mV) to -50 mV results in the tail current (the tail current represents deactivation of the current overtime). Compound dilutions were prepared by diluting a DMSO solution (default 10 mM), followed by dilution into an extracellular buffer such that the final concentrations tested were 0.1, 1, and 10 μM (final DMSO concentration 0.1%). Perfusion solutions contained 0.05% Pluronic F-68 and were stored at room temperature for the duration of the experiment each day. The voltage protocol was run and recorded continuously during the experiment. Cells were treated with a vehicle for 3 min (i.e., 0.1% DMSO) followed by three increasing test substance concentrations (0.1, 1, and 10 μM). The test compounds were applied in triplicate at each concentration and tested in at least 2 cells (biological replicates). […]

H. pylori 49503 = assay: Broth microdilution MIC, H. pylori; assay type: cell-based, Helicobacter pylori; conditions: Helicobacter pylori, 49503
Experimental: (§2) In vitro antibiotic susceptibilities were determined using the broth microdilution assay established by the Clinical and Laboratory Standards Institute ([Clinical and Laboratory Standards Institute, 2012]). Broth microdilution assays were carried out with 2 biological replicates, each in triplicate, Mueller–Hinton broth (MHB; BD Biosciences, Franklin Lakes, NJ, USA) with a total assay volume of 100 μL in 96-well plates (BD Biosciences, Franklin Lakes, NJ, USA). Two-fold serial dilutions of compounds were prepared at a range of 0.01– 64 μg/mL in 50 μL of MHB. The initial bacterial inoculum was adjusted to OD600 0.06, 50 μL was, added to the test compounds, and then incubated at 35°C for 18 h. Post incubation, OD600 was measured using a Vmax microplate reader (Molecular Devices, San Jose, CA), and the lowest concentration of test compound that suppressed bacterial growth was reported as the MIC. Broth culture from the MIC assay (10 μL) was plated on Mueller–Hinton agar (BD Biosciences, Franklin Lakes, NJ, USA), and colony-forming units (CFUs) were enumerated after overnight incubation at 37°C.

Enterobacter (EAE 2625) = assay: Broth microdilution MIC, Enterobacter; assay type: cell-based, Enterobacter spp.; conditions: Enterobacter
Experimental: as §2

P. aeruginosa PA14 = assay: Broth microdilution MIC, P. aeruginosa; assay type: cell-based, Pseudomonas aeruginosa; conditions: Pseudomonas aeruginosa, PA14
Experimental: as §2

K. pneumoniae ATCC 77326 = assay: Broth microdilution MIC, K. pneumoniae; assay type: cell-based, Klebsiella pneumonia; conditions: Klebsiella pneumoniae, ATCC77326
Experimental: as §2

A. baumannii 17978 = assay: Broth microdilution MIC, A. baumannii; assay type: cell-based, Acinetobacter baumannii; conditions: Acinetobacter baumannii, 17978
Experimental: as §2

E. faecium ATCC E007 = assay: Broth microdilution MIC, E. faecium; assay type: cell-based, Enterococcus faecium; conditions: Enterococcus faecium, ATCCE007
Experimental: as §2

[7] = system: clinical isolates of S. aureus; assay: MIC against clinical isolates of S. aureus; assay type: cell-based; conditions: Staphylococcus aureus
Experimental: Broth microdilution assays were carried out with 2 biological replicates, each in triplicate, Mueller–Hinton broth (MHB; BD Biosciences, Franklin Lakes, NJ, USA) with a total assay volume of 100 μL in 96-well plates (BD Biosciences, Franklin Lakes, NJ, USA). […] The initial bacterial inoculum was adjusted to OD600 0.06, 50 μL was, added to the test compounds, and then incubated at 35°C for 18 h. Post incubation, OD600 was measured using a Vmax microplate reader (Molecular Devices, San Jose, CA), and the lowest concentration of test compound that suppressed bacterial growth was reported as the MIC.
Isolates were tested as 2 biological replicates.

S. aureus MW2 [8] = assay: Broth microdilution MIC, S. aureus MW2; assay type: cell-based, Staphylococcus aureus; conditions: Staphylococcus aureus, MRSA, 18 h
Experimental: as §2

mature S. aureus biofilm = assay: Disruption of mature biofilm; assay type: cell-based, Staphylococcus aureus; conditions: preformed 24 h biofilm, Alamar Blue
Experimental: (§3) Diluted bacterial cells were added to 100 μL of test compounds (serially diluted 16 to 0 μg/mL) and incubated for 24 h to assess the biofilm formation inhibition. For the disruption of matured biofilm, diluted cells in 100 μL were added to the 96-well plate and incubated for 24 h with no agitation. […] Biofilm assays were completed in triplicate.

[9] = system: S. aureus MW2 biofilm formation; assay: Biofilm formation inhibition; assay type: cell-based, Staphylococcus aureus; conditions: 24 h, Alamar Blue
Experimental: as §3

In the case of CC(C)(C)c1ccc(S(=O)[O-])cc1.[Au+].c1ccc(P(c2ccccc2)c2ccccc2)cc1 [AU5], the selectivity ratio at 24 h [1] is reported as 16, the LD50 (HepG2 cells) is reported as “approximately 4 μg/mL” and the solubility at 1 h [2] is reported as 6.5 µg/mL. For the same compound, the LD50 ([3]; renal proximal tubule epithelial cells) was 2 µg/mL, the solubility at 2 h ([4]; PBS, 2 Hour, highest concentration with no detectable precipitate, read-out: Solubility Limit) was 3.13 µM and the solubility at 2 h ([4]; pbs, read-out: Solubility in PBS converted to mass concentration) was 2.03 µg/mL. For the same compound, the IC50 (S. aureus TrxR) was 1830 nM, the LD50 (HKC cells) was “approximately 4 μg/mL” and the LD50 [5] was about 6 µg/mL. The LD50 (A549 cells) was “approximately 4 μg/mL”, the “bactericidal versus bacteriostatic nature (time-to-kill kinetics)” value (S. aureus MW2 [6]) was “bactericidal; also recorded: bacteriocidal” and the IC50 (hERG channel) was 3160 nM.

For CN[C@H](CC(C)C)C(=O)N[C@H]1C(=O)N[C@@H](CC(N)=O)C(=O)N[C@H]2C(=O)N[C@H]3C(=O)N[C@H](C(=O)N[C@H](C(=O)O)c4cc(O)cc(O)c4-c4cc3ccc4O)[C@H](O)c3ccc(c(Cl)c3)Oc3cc2cc(c3O[C@@H]2O[C@H](CO)[C@@H](O)[C@H](O)[C@H]2O[C@H]2C[C@](C)(N)[C@H](O)[C@H](C)O2)Oc2ccc(cc2Cl)[C@H]1O [Vancomycin], the MIC (H. pylori 49503) was over 64 µg/mL, the “impact on renal proximal tubule epithelial cells (in words)” value ([3]; at the tested concentrations) was “did not impact” and the MIC (Enterobacter (EAE 2625)) was over 64 µg/mL. It also gave an MIC (P. aeruginosa PA14) of over 64 µg/mL, an MIC (K. pneumoniae ATCC 77326) of over 64 µg/mL and an MIC (A. baumannii 17978) of over 64 µg/mL. It also gave an MIC (E. faecium ATCC E007) of 1 µg/mL (≈ 0.69 µM), an MIC ([7]; isolate BFSA12) of 1 µg/mL (≈ 0.69 µM) and an MIC ([7]; isolate BFSA13) of 1 µg/mL (≈ 0.69 µM). For the same compound, the MIC ([7]; isolate BFSA15) was 1 µg/mL (≈ 0.69 µM), the MIC ([7]; isolate BFSA16) was 1 µg/mL (≈ 0.69 µM) and the MIC ([7]; isolate BFSA17) was 1 µg/mL (≈ 0.69 µM). It also gave an MIC ([7]; isolate BFSA18) of 2 µg/mL (≈ 1.38 µM), an MIC ([7]; isolate BFSA19) of 1 µg/mL (≈ 0.69 µM) and an MIC ([7]; isolate BFSA20) of 1 µg/mL (≈ 0.69 µM). It also gave an MIC ([7]; isolate BFSA21) of 2 µg/mL (≈ 1.38 µM), an MIC ([7]; isolate BFSA22) of 2 µg/mL (≈ 1.38 µM) and an MIC ([7]; isolate BFSA24) of 1 µg/mL (≈ 0.69 µM). For the same compound, the MIC ([7]; isolate BFSA26) was 2 µg/mL (≈ 1.38 µM), the MIC ([7]; isolate BFSA29) was 1 µg/mL (≈ 0.69 µM) and the MIC ([7]; isolate BFSA30) was 1 µg/mL (≈ 0.69 µM). It also gave an MIC ([7]; isolate BFSA31) of 2 µg/mL (≈ 1.38 µM), an MIC ([7]; isolate BFSA32) of 2 µg/mL (≈ 1.38 µM) and an MIC ([7]; isolate BFSA33) of 2 µg/mL (≈ 1.38 µM). It also gave an MIC ([7]; isolate BFSA34) of 1 µg/mL (≈ 0.69 µM), an MIC ([7]; isolate BFSA35) of 1 µg/mL (≈ 0.69 µM) and an MIC ([7]; isolate BFSA36) of 2 µg/mL (≈ 1.38 µM). The MIC ([7]; isolate BFSA37) was 1 µg/mL (≈ 0.69 µM), the MIC ([7]; isolate BFSA38) was 1 µg/mL (≈ 0.69 µM) and the MIC ([7]; isolate BFSA39) was 1 µg/mL (≈ 0.69 µM). The MIC ([7]; isolate BFSA148) was 1 µg/mL (≈ 0.69 µM), the MIC ([7]; isolate BFSA149) was 2 µg/mL (≈ 1.38 µM) and the MIC ([7]; isolate BFSA150) was 1 µg/mL (≈ 0.69 µM). The MIC ([7]; isolate BFSA151) was 1 µg/mL (≈ 0.69 µM), the MIC ([7]; isolate BFSA152) was 2 µg/mL (≈ 1.38 µM) and the MIC ([7]; isolate BFSA153) was 2 µg/mL (≈ 1.38 µM). The MIC ([7]; isolate BFSA155) was 1 µg/mL (≈ 0.69 µM), the MIC (S. aureus MW2 [8]) was 1 µg/mL (≈ 0.69 µM) and the “concentration that significantly reduced mature biofilm” value (mature S. aureus biofilm) was 2 µg/mL. The “concentration that inhibited biofilm formation (P<0.01)” value [9] was 1 µg/mL.
